{"source": "patent US5302599A", "about": "“Therapeutically useful heterocyclic indole compounds” (The Upjohn Company, priority 1992, dated 1994)", "key": {"[1]": {"molecular_target": "T1, 5-hydroxytryptamine (HT1A) receptor (Bos taurus, UniProt F6Q2H9)", "T1 construct": "from tissue; host or cells: bovine brain homogenate", "T1 sequence (F6Q2H9 1-422)": "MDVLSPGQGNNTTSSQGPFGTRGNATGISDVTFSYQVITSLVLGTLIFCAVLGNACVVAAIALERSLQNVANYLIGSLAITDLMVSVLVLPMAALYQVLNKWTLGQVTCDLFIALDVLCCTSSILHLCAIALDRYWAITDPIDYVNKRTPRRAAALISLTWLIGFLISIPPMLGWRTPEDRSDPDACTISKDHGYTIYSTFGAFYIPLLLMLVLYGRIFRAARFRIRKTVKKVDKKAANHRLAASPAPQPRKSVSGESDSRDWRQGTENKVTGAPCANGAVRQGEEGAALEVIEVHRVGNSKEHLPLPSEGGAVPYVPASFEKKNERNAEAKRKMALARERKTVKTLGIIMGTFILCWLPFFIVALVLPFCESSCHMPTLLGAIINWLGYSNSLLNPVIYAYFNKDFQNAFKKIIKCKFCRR", "assay": "Inhibition of 3H-8-OH-DPAT binding in a bovine brain homogenate (5HT1A binding)", "source_text": "Binding: Inhibition of 3H-8-OH-DPAT binding in a bovine brain homogenate. Potency is given as nanomole (nM) dose required to inhibit 50% of DPAT binding (IC50). This test measures ability to bind to 5-hydroxytryptamine (HT1A ) receptor."}, "dopamine D2 receptors": {"molecular_target": "dopamine D2 receptors (Rattus norvegicus, UniProt P61169)", "sequence (P61169 whole entry)": "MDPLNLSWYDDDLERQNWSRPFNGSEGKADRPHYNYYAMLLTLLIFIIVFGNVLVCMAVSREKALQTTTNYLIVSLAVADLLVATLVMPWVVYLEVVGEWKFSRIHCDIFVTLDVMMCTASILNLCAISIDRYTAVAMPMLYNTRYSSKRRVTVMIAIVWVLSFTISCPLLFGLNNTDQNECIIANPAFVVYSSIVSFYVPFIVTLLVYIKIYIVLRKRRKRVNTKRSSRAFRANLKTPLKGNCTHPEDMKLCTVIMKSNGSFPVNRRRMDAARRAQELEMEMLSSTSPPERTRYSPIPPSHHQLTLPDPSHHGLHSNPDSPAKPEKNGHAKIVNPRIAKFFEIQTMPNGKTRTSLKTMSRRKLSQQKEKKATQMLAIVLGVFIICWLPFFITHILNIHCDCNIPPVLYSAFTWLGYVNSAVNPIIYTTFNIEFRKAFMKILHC", "assay": "biochemical", "assay_type": "binding", "text": "For Dopamine (D2): Inhibition of 3H-raclopride binding in rat striata homogenate. […] This test measures the ability to bind to dopamine D2 receptors."}, "[2]": {"assay": "Hypothermia in mice after subcutaneous injection", "assay_type": "in vivo", "conditions": "20 min, dose required to depress temperature (2° C.) in two of four mice, Spearman-Karber; for ED50: Mus musculus, sc", "procedure": "Hypothermia: Starting with a dose of 30 mg/kg, four mice are injected subcutaneously with test compound. Twenty minutes later, the number of animals whose body temperature has decreased by 2° C. or more are counted. […] The time for last statistically significant drug affect on mean body temperature is indicated in minutes. […] Potency is given as mg/kg ED50 (dose required to depress temperature in two of four mice) as measured by Spearman-Karber statistics."}, "[3]": {"conditions": "5HT1A Binding IC50, 3H-8-OH-DPAT"}, "[4]": {"conditions": "3H-8-OH-DPAT, read-out: 5HT1A Binding IC50"}, "[5]": {"conditions": "3H-raclopride, rat striata homogenate, read-out: Dopamine D2-Receptor Binding IC50"}, "[6]": {"conditions": "mice, subcutaneous, read-out: Hypothermia ED50"}, "[7]": {"conditions": "read-out: Hypothermia ED50, mice, subcutaneous"}}, "note": "Where a name gives a salt, the structure may show the parent alone. Read-outs that look alike come from different tables or passages of the source.", "data": [{"smiles": "COC(=O)c1cc2c3c(ccc2[nH]1)OCC(CN1CCC(Nc2ccccc2)(C(N)=O)CC1)O3", "note": "(stereo not shown) [XIi, 7H-1,4-Dioxino(2,3-e)indole-8-carboxylic acid, 2-((4(aminocarbonyl)-4-(phenylamino)-1-piperidinyl)methyl)-2,3-dihydro-, methyl ester]", "values": [{"measurement": "IC50", "setting": "[1]; [3]", "value": 79.3, "unit": "nM"}]}, {"smiles": "COC(=O)c1cc2c3c(ccc2[nH]1)OCC(CNCCCc1ccccc1)O3", "note": "(stereo not shown) [XIj, 7H-1,4-Dioxino(2,3-e)indole-8-carboxylic acid, 2,3-dihydro-2-((3-phenylpropyl)amino)methyl)-, methyl ester, monohydrochloride]", "values": [{"measurement": "IC50", "setting": "[1]; [4]", "value": 4, "unit": "nM"}, {"measurement": "IC50", "setting": "dopamine D2 receptors; [5]", "value": 54.6, "unit": "nM"}, {"measurement": "ED50", "setting": "[2]; [6]", "value": 1.3, "unit": "mg/kg"}]}, {"smiles": "COC(=O)c1cc2c3c(ccc2[nH]1)OCC(CN1CCC(n2c(=O)[nH]c4ccccc42)CC1)O3", "note": "(stereo not shown) [XIg, 7H-1,4-Dioxino(2,3-e)indole-8-carboxylic acid, 2-((4-(2,3-dihydro-2-oxo-1H-benzimidazol-1-yl)-1-piperidinyl)methyl)-2,3-dihydro-, methyl ester, monohydrochloride]", "values": [{"measurement": "IC50", "setting": "[1]; [3]", "value": 3.7, "unit": "nM"}]}, {"smiles": "O=C(O)c1cc2c3c(ccc2[nH]1)OCC(CN1CCC2(CC1)C(=O)NCN2c1ccccc1)O3", "note": "(stereo not shown) [b']", "values": [{"measurement": "IC50", "setting": "[1]; [3]", "value": 24.7, "unit": "nM"}, {"measurement": "IC50", "setting": "dopamine D2 receptors", "value": 52.2, "unit": "nM"}, {"measurement": "Hypothermia ED50", "setting": "[2]; mice, subcutaneous", "value": 30.0, "unit": "mg/kg"}]}, {"smiles": "C=CCn1c(C(=O)OC)cc2c3c(ccc21)OCC(CN1CCC2(CC1)C(=O)NCN2c1ccccc1)O3", "note": "(stereo not shown) [XIn, 7H-1,4-Dioxino(2,3-e)indole-8-carboxylic acid, 2,3-dihydro-2-((4-oxo-1-phenyl-1,3,8-triazaspiro(4.5)dec-8-yl)methyl)-7-(2-propenyl)-, methyl ester]", "values": [{"measurement": "IC50", "setting": "[1]; [3]", "value": 268, "unit": "nM"}]}, {"smiles": "CCOC(=O)C1CCN(CC2COc3ccc4[nH]c(C(=O)OC)cc4c3O2)CC1", "note": "(stereo not shown) [XIh, 7H-1,4-Dioxino(2,3-e)indole-8-carboxylic acid, 2-((4-(ethoxycarbonyl-1-piperidinyl)methyl)-2,3-dihydro-, methyl ester, monohydrochloride]", "values": [{"measurement": "IC50", "setting": "[1]; [4]", "value": 9.6, "unit": "nM"}, {"measurement": "IC50", "setting": "dopamine D2 receptors; [5]", "value": 147, "unit": "nM"}, {"measurement": "ED50", "setting": "[2]; [6]", "value": "> 30", "unit": "mg/kg"}]}, {"smiles": "O=C1NCN(c2ccccc2)C12CCN(CC1COc3ccc4[nH]ccc4c3O1)CC2", "note": "(stereo not shown) [XIm, 1,3,8-Triazaspiro(4.5)decan-4-one, 8-((2,3-dihydro-7H-1,4-dioxino(2,3-e)indol-2-yl)methyl)-1-phenyl]", "values": [{"measurement": "IC50", "setting": "[1]; [3]", "value": 1, "unit": "nM"}, {"measurement": "IC50", "setting": "dopamine D2 receptors", "value": 0.13, "unit": "nM"}]}, {"smiles": "O=C(O)c1cc2c3c(ccc2[nH]1)OCC(CN1CCC2(CC1)C(=O)NCN2c1ccccc1)O3", "note": "(stereo not shown) [XIb]", "values": [{"measurement": "IC50", "setting": "[1]; [3]", "value": 36.3, "unit": "nM"}, {"measurement": "ED50", "setting": "[2]; [7]", "value": 17.3, "unit": "mg/kg"}]}, {"smiles": "NC(=O)c1cc2c3c(ccc2[nH]1)OCC(CN1CCC2(CC1)C(=O)NCN2c1ccccc1)O3", "note": "(stereo not shown) [XIc, 7H-1,4-Dioxino(2,3-e)indole-8-carboxamide, 2,3-dihydro-2-((4-oxo-1-phenyl-1,3,8-triazaspiro(4.5)dec-8-yl)methyl)-]", "values": [{"measurement": "IC50", "setting": "[1]; [3]", "value": 0.29, "unit": "nM"}]}, {"smiles": "COC(=O)c1cc2c3c(ccc2[nH]1)OCC(CN1CCC2(CC1)C(=O)NCN2c1ccccc1)O3", "note": "(stereo not shown) [XIa, 2,3-dihydro-2-((4-oxo-1-phenyl-1,3,8-triazaspiro(4.5)-dec-8-yl)methyl)-7H-1,4-dioxino(2,3-e)indol-8-methyl ester]", "values": [{"measurement": "IC50", "setting": "[1]; [3]", "value": 0.47, "unit": "nM"}, {"measurement": "ED50", "setting": "[2]; [7]", "value": 30, "unit": "mg/kg"}]}, {"smiles": "Cl.O=C(NCCCc1ccccc1)c1cc2c3c(ccc2[nH]1)OCC(CNCCCc1ccccc1)O3", "note": "(stereo not shown) [XIk, 7H-1,4-Dioxino(2,3-e)indole-8-carboxamide, 2,3-dihydro-N-(3-phenylpropyl)-2-(((3-phenylpropyl)amino)methyl)-, monohydrochloride]", "values": [{"measurement": "IC50", "setting": "[1]; [4]", "value": 26, "unit": "nM"}, {"measurement": "IC50", "setting": "dopamine D2 receptors; [5]", "value": 350, "unit": "nM"}, {"measurement": "ED50", "setting": "[2]; [6]", "value": "> 30", "unit": "mg/kg"}]}, {"smiles": "O=C1NCN(c2ccccc2)C12CCN(CC1COc3ccc4[nH]c(CO)cc4c3O1)CC2", "note": "(stereo not shown) [XIl, 1,3,8-Triazaspiro(4.5)decan-4-one, 8-((2,3-dihydro-8-(hydroxymethyl)-7H-1,4-dioxino(2,3-e)indol-2-yl)methyl)-1-phenyl-]", "values": [{"measurement": "IC50", "setting": "[1]; [3]", "value": 2.3, "unit": "nM"}]}, {"smiles": "CCCCOC(=O)c1cc2c3c(ccc2[nH]1)OCC(CN1CCC2(CC1)C(=O)NCN2c1ccccc1)O3", "note": "(stereo not shown) [XIe, 7H-1,4-Dioxino(2,3-e)indole-8-carboxylic acid, 2,3-dihydro-2-((4-oxo-1-phenyl-1,3,8-triazaspiro(4.5)dec-8-yl)methyl)-, butyl ester]", "values": [{"measurement": "IC50", "setting": "[1]; [3]", "value": 13.5, "unit": "nM"}]}, {"smiles": "C=CCN1CN(c2ccccc2)C2(CCN(CC3COc4ccc5c(cc(C(=O)OC)n5CC=C)c4O3)CC2)C1=O", "note": "(stereo not shown) [XIo, 7H-1,4-Dioxino(2,3-e)indole-8-carboxylic acid, 2,3-dihydro-2-((4-oxo-1-phenyl-3-(2-propenyl)-1,3,8-triazaspiro(4.5)dec-8-yl)methyl)-7-(2-propenyl)-, methyl ester]", "values": [{"measurement": "IC50", "setting": "[1]; [3]", "value": 280, "unit": "nM"}, {"measurement": "IC50", "setting": "dopamine D2 receptors", "value": 97.3, "unit": "nM"}]}, {"smiles": "C=CCN1CN(c2ccccc2)C2(CCN(CC3COc4ccc5[nH]c(C(=O)OC)cc5c4O3)CC2)C1=O", "note": "(stereo not shown) [XIp, 7H-1,4-Dioxino(2,3-e)indole-8-carboxylic acid, 2,3-dihydro-2-((4-oxo-1-phenyl-3-(2-propenyl)-1,3,8-triazaspiro(4.5)dec-8-yl)methyl)-, methyl ester]", "values": [{"measurement": "IC50", "setting": "[1]; [3]", "value": 11, "unit": "nM"}]}, {"smiles": "O=C(OCc1ccccc1)c1cc2c3c(ccc2[nH]1)OCC(CN1CCC2(CC1)C(=O)NCN2c1ccccc1)O3", "note": "(stereo not shown) [XIf, 7H-1,4-Dioxino(2,3-e)indole-8-carboxylic acid, 2,3-dihydro-2-((4-oxo-1-phenyl-1,3,8-triazaspiro(4.5)dec-8-yl)methyl)-, phenylmethyl ester]", "values": [{"measurement": "IC50", "setting": "[1]; [3]", "value": 8.4, "unit": "nM"}, {"measurement": "IC50", "setting": "dopamine D2 receptors; [5]", "value": 190, "unit": "nM"}, {"measurement": "ED50", "setting": "[2]; [7]", "value": 17.3, "unit": "mg/kg"}]}, {"smiles": "COC(=O)C1Cc2c(ccc3c2OC(CN2CCC4(CC2)C(=O)NCN4c2ccccc2)CO3)N1", "note": "(stereo not shown) [a', 7H-1,4-Dioxino(2,3-e)indole-8-carboxylic acid 2,3,8,9-tetrahydro-2-((4-oxo-1-phenyl-1,3,8-triazaspiro(4.5)dec-8-yl)methyl)-, methyl ester]", "values": [{"measurement": "ED50", "setting": "[2]; [7]", "value": 17.3, "unit": "mg/kg"}]}, {"smiles": "N#Cc1cc2c3c(ccc2[nH]1)OCC(CN1CCC2(CC1)C(=O)NCN2c1ccccc1)O3", "note": "(stereo not shown) [XId, 7H-1,4-Dioxino(2,3-e)indole-8-carbonitrile, 2,3-dihydro-2-((4-oxo-1-phenyl-1,3,8-triazaspiro(4.5)dec-8-yl)methyl)-]", "values": [{"measurement": "IC50", "setting": "[1]; [3]", "value": 0.17, "unit": "nM"}, {"measurement": "IC50", "setting": "dopamine D2 receptors", "value": 1.53, "unit": "nM"}, {"measurement": "ED50", "setting": "[2]; [7]", "value": 0.01, "unit": "mg/kg"}]}]}
